For series [1], the system named is HIV-associated Kaposi's sarcoma. As to the kind of experiment: Objective response, progression-free survival and survival on paclitaxel. The series is classed as in vivo, human.
The format of series [2] is in vivo, human. The conditions noted are these: paclitaxel 100 mg/m^2 IV over 3 h, cycle 1; patients taking protease inhibitors.
The conditions of series [3]: 107 male patients, paclitaxel 100 mg/m^2 intravenously over 3 hours every 2 weeks, 77% received protease inhibitors; cited from earlier work.
For series [4] the following is noted: cited from earlier work.
[5] abbreviates: 20 evaluable patients, no prior paclitaxel, 100 mg/m^2 IV every 14 days.

Each structure is given as a SMILES string.

For `CC(=O)O[C@H]1C(=O)[C@@]2(C)[C@H]([C@H](OC(=O)c3ccccc3)[C@]3(O)C[C@H](OC(=O)[C@H](O)[C@@H](NC(=O)c4ccccc4)c4ccccc4)C(C)=C1C3(C)C)[C@]1(OC(C)=O)CO[C@@H]1C[C@@H]2O` [Paclitaxel], the “treatment-related infection of grade 3 or higher, patients” value (20 patients, paclitaxel as first line therapy) is reported as 15%. In addition, the “Infection Grade 3, patients no. (%)” value (PI (n=15)) is on record as 3 (20%). For the same compound, under “human, in vivo”, the “Abdominal cramps Grade 3, patients no. (%)” value is 1 (7%); the “Anemia Grade 3, patients no. (%)” value was 2 (13%); the “Anemia Grade 4, patients no. (%)” value is 1 (7%); the “Cardiac toxicity Grade 4, patients no. (%)” value is 1 (5%). Where the note is “human, in vivo”, the “Eye irritation Grade 3, patients no. (%)” value was 1 (7%); the “Fatigue Grade 3, patients no. (%)” value is 2 (13%); the “GU toxicity Grade 3, patients no. (%)” value is listed as 1 (7%); the “Granulocytopenia Grade 3, patients no. (%)” value is recorded as 3 (20%). Also, for the setting “human, in vivo”, the “Ileus Grade 4, patients no. (%)” value is given as 1 (7%); the “Leukopenia Grade 4, patients no. (%)” value was 1 (20%); the “Liver toxicity Grade 3, patients no. (%)” value is 1 (7%); the “Liver toxicity Grade 4, patients no. (%)” value is on record as 1 (7%). Also, under “human, in vivo”, the “Metabolic toxicity Grade 3, patients no. (%)” value is 1 (7%); the “Metabolic toxicity Grade 4, patients no. (%)” value was 1 (7%); the “Neuro-motor toxicity Grade 3, patients no. (%)” value is reported as 1 (7%); the “Pulmonary toxicity Grade 3, patients no. (%)” value is on record as 1 (7%). Besides, where the note is “human, in vivo”, the “Pulmonary toxicity Grade 4, patients no. (%)” value is on record as 1 (20%); the “Skin toxicity Grade 3, patients no. (%)” value is 1 (20%); the “Thrombocytopenia Grade 4, patients no. (%)” value is listed as 1 (7%); the “WORST DEGREE of toxicity Grade 3, patients no. (%)” value was 7 (47%). For the setting “human, in vivo”, the “treatment-related anemia of grade 3 or higher, patients” value is on record as 15% and the “treatment-related granulocytopenia of grade 3 or higher, patients” value amounted to 40%. For the same compound, in series [1] (setting [5]), the “best response: partial response, patients” value stood at 30%; the “best response: progressive disease, patients” value amounted to 10%; the “best response: stable disease (SD), patients” value turned out to be 50%. Also, the “objective response, patients” value in series [1] (20 patients assessable for response) was 30%. Further, the “three year survival rate” value in series [1] (20 patients, no prior paclitaxel) is recorded as 67%. For the same compound, in series [1] (20 patients, no prior paclitaxel, 100 mg/m^2 IV every 14 days), the “median progression free survival” value worked out at 7.8 months. For the same compound, in series [1] (20 patients, no prior paclitaxel, median follow-up of 50 months in the 13 surviving patients), the median overall survival result is listed as “had not been reached”. For the same compound, the “duration spent at a paclitaxel concentration > 0.05 μM” value in series [2] is 19.0 (3.0–27.8) hr. Also, the “differences in the incidence or severity of toxicity, patients receiving protease inhibitors compared to those who did not” value in series [3] is given as “No differences”.
Regarding `O=P1(N(CCCl)CCCl)NCCCO1` (centres unmarked) [cyclophosphamide], the “clearance reduced compared to historical controls” value in series [4] (29 patients receiving CHOP chemotherapy with HAART) is 1.5 fold.
For the compound `COc1cccc2c1C(=O)c1c(O)c3c(c(O)c1C2=O)C[C@@](O)(C(=O)CO)C[C@@H]3O[C@H]1C[C@H](N)[C@H](O)[C@H](C)O1` [doxorubicin], the effects on clearance entry in series [4] (human, in vivo) is reported as “No significant effects”.

These data come from publication PMC3112249 (Cancer chemotherapy and pharmacology, 2011).
